{"source": "paper PMC3030572", "about": "“Antamanide, a Derivative of Amanita phalloides, Is a Novel Inhibitor of the Mitochondrial Permeability Transition Pore” (PLoS ONE, 2011)", "key": {"[1]": {"tested_on": "mitochondrial permeability transition pore (PTP), wild-type fibroblasts", "assay_type": "cell-based, mouse", "settings": "Figure 4C", "experimental": "A, B, PTP opening of digitonized wild-type (A) or CyP-D knock-out (B) fibroblasts was measured with the whole-cell CRC assay. Experiments were started by the addition of digitonized cells (not shown) followed by pulses of Ca^2+ (5 µM each) and are plotted as in Figure 1B. The use of AA is shown with a red trace. Alamethicin (Alm, 1 µM) was added at the end of each measurement to fully release Ca^2+ from intracellular stores. […] D, isomerase activity assay (see Materials and Methods): after addition of the substrate peptide N-succinyl-Ala-Ala-cis-trans-Pro-Phe-p-nitroanilide (arrow), chimotrypsin cleaves the trans-isomeric form, causing a rise in absorbance.\nThe Ca^2+ retention capacity (CRC) assay was used to assess PTP opening following trains of Ca^2+ pulses and measured fluorimetrically at 25°C in the presence of the Ca^2+ indicator Calcium Green-5N (1 µM; λexc: 505 nm; λem: 535 nm; Molecular Probes). […] Digitonin was then eliminated and the number of cells carefully assessed before starting each experiment. […] Cells or mitochondria were then exposed to Ca^2+ spikes, and fluorescence drops were used to assess mitochondrial Ca^2+ uptake. PTP opening was detected as a fluorescence increase. Calcium Green-5N fluorescence was measured either with a fluorescence spectrometer LS50B (Perkin Elmer, Waltham, MA) or with a Fluoroskan Ascent FL fluorimeter (Thermo Electron Corporation, Waltham, MA)."}, "animal model": {"tested_on": "animal model", "settings": "ref [4]; cited from earlier work", "text": "(§1) Antamanide (AA) is a monocyclic, homodetic decapeptide isolated from the poisonous mushroom Amanita phalloides. […] Little is known about the biochemical mechanisms underlying these diverse bioactivities. To explain its antitoxic activity, ..."}, "tumour cell models": {"tested_on": "tumour cell models", "settings": "in vitro; ref [3]; cited from earlier work", "text": "as §1"}, "[2]": {"tested_on": "IL-2-induced multisystem organ edema", "settings": "ref [5]; cited from earlier work", "text": "as §1"}, "[3]": {"tested_on": "hepatocyte membrane transporter for the phallotoxin phalloidin and for the amatoxin alpha-amanitin", "settings": "proposed; ref [6], [7]; cited from earlier work", "text": "as §1"}, "HeLa cells [4]": {"tested_on": "HeLa cells", "assay_type": "cell-based, human", "settings": "30 min preincubation, TMRM, n = 4", "experimental": "Figure 5 Effect of AA on mitochondrial potential of HeLa cells. A, bar graphs report the ratio between the CRC detected in the presence (CRC) and absence (CRC0) of increasing concentrations of AA in mitochondria from HeLa cells. […] B,C cytofluorimetric analysis of mitochondrial depolarization. HeLa cells were incubated with the TMRM probe and treated for 1 hour with the reported concentrations of either clotrimazole (CTM) or TAT-HK peptide. An unrelated TAT-linked peptide (TAT-Ctr) is used as a negative control. […] Bar graphs in B display the percentage of cells with depolarized mitochondria (mean±SD, n = 4). […] Histograms in C report a representative experiment, where cells with polarized and depolarized mitochondria are indicated in red and grey, respectively.\n(§2) Flow cytometry recordings were performed as described, [51], [52]. Briefly, at the end of the incubation, cells were resuspended in 135 mM NaCl, 10 mM HEPES, 5 mM CaCl2 and incubated at 37°C in either TMRM (10 nM) to detect mitochondrial depolarization (reduced TMRM staining), or in FITC-conjugated Annexin-V and propidium iodide (PI, 1 µg/ml), to detect phosphatidylserine exposure on the cell surface (increased FITC-conjugated Annexin-V staining) and loss of plasma membrane integrity (PI permeability and staining). […] Samples were analyzed on a FACSCanto II flow cytometer (Becton Dickinson, San Diego, CA, USA). Data acquisition and analysis were performed using FACSDiva software."}, "HeLa cells [5]": {"tested_on": "HeLa cells", "assay_type": "cell-based, human", "settings": "30 min preincubation, then TAT-HK 1 hour", "experimental": "A, cytofluorimetric analysis of cell death induction in HeLa cells treated for 1 hour with TAT-HK. […] TAT-Ctr was used as a negative control. Cells were double stained with Annexin V-FITC and propidium iodide (PI), to respectively evaluate apoptosis induction as phosphatidylserine exposure on the cell surface (increased Annexin V-FITC staining) and cell death as plasma membrane permeabilization (increased PI staining). We considered Annexin V^+ as early/intermediate apoptotic cells; PI^+ as necrotic cells; double stained as late apoptotic cells. Bar graphs display the percentage of each cell population (mean±SD, n = 4; double positive cells are added to both bars). […] B, histograms reporting a representative experiment, where viable cells are indicated in red, PI^+- and Annexin V^+-cells are indicated in grey and green, respectively.\nas §2"}}, "note": "Entries after “also recorded” stand apart in the source; their conditions may differ."}
{"substance": "Antamanide [AA]", "values": [{"measurement": "PTP inhibition (CRC/CRC0)", "setting": "[1]; digitonized wild-type cells, mean±SD of at least 4 experiments", "result": "display an inhibitory effect on the PTP in wild-type"}, {"measurement": "CRC/CRC0: difference from CRC of untreated mitochondria", "setting": "[1]; wild-type fibroblasts, Student's t test", "result": "significant difference (Student's t test analysis; *: p<0.01)"}, {"measurement": "antitumor action", "setting": "animal model", "result": "displays an antitumor action in an animal model"}, {"measurement": "tumor cell growth inhibition", "setting": "tumour cell models", "result": "inhibits tumor cell growth in vitro"}, {"measurement": "attenuation of edema", "setting": "[2]", "result": "attenuates IL-2-induced multisystem organ edema"}, {"measurement": "antagonism of hepatocyte transporter for phalloidin and alpha-amanitin", "setting": "[3]", "result": "competitively antagonizes a hepatocyte membrane transporter"}, {"measurement": "reversal of CTM-induced mitochondrial depolarization", "setting": "HeLa cells [4]; then CTM 1 hour", "result": "significantly decreased the percentage of cells with mitochondria depolarized by CTM (Student's t test analysis; *: p<0.01); also recorded: similarly reverted"}, {"measurement": "reversal of TAT-HK-induced mitochondrial depolarization", "setting": "HeLa cells [4]; then TAT-HK 1 hour", "result": "similarly reverted"}, {"measurement": "effect on TAT-HK-induced necrotic response", "setting": "HeLa cells [5]", "result": "virtually abolished the necrotic response"}, {"measurement": "residual apoptosis after TAT-HK", "setting": "HeLa cells [5]", "result": "a small fraction of cells undergoing apoptosis was still detectable"}, {"measurement": "protection from TAT-HK induced death", "setting": "HeLa cells [5]; n = 4, Student's t test *: p<0.01", "result": "significantly protected from TAT-HK induced death"}]}
